The values below come from patent US11427553B2, “Dihydrooxadiazinones” (Bayer Aktiengesellschaft, priority 2017, dated 2022).

One assay has as its system HeLa cells. As to the kind of experiment: Assay 1 cell proliferation measurement (CTG, 72 h), HeLa. In kind it is cell-based, human. The settings on record: Homo sapiens, HeLa; Assay 1, 72 h, Cell Titer Glo; read-out: HeLa IC50 [nM] (Cervical cancer). Put shortly: (§1)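 CellTiter-Glo luminescence was read at treatment start (0 h plate) and after 72 h compound exposure at 37 °C. Doses were 2.5-fold steps, ten concentrations, top 100 nM final, 0.3% DMSO. Growth inhibition was scaled between 0 h and vehicle values, and IC50 was obtained by 4-parameter fitting.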
(In ATP-based viability assays light output follows the ATP content of the culture.)

For a further assay, the system named is SK-MEL-3 cells. As to the kind of experiment: Assay 1 cell proliferation measurement (CTG, 72 h), SK-MEL-3. It is filed as cell-based, human. To be noted: Homo sapiens, SK-MEL3; Assay 1, 72 h, Cell Titer Glo; read-out: SK-MEL-3 IC50 [nM] (melanoma). Put shortly:
as §1

The target in a further assay is human full length PDE3A (Homo sapiens (Human), UniProt Q14432). Briefly: Assay 4 PDE3A enzyme inhibition (3H-cAMP SPA). It is filed as biochemical. To be noted: Sf9 cell extract. Put shortly:
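Hydrolysis of [8-3H]cAMP by Sf9-expressed full-length PDE3A was measured by scintillation proximity, with enzyme diluted to keep kinetics linear and substrate consumption below 70%. Incubation ran 60 min at room temperature at pH 7.5.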

The target of another assay is human full length PDE3B (Homo sapiens (Human), UniProt Q13370). As to the kind of experiment: Assay 5 PDE3B enzyme inhibition (3H-cAMP SPA). In kind it is biochemical. The settings on record: Sf9 cell extract. In a few lines: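 Compounds in DMSO are mixed with diluted PDE3B extract from Sf9 cells, and reactions start on adding tritiated cAMP. After 60 min at room temperature, yttrium scintillation proximity beads terminate hydrolysis and signal is counted; IC50 values come from sigmoidal dose-response curves.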
human full length PDE3B, sequence (Q13370 whole entry): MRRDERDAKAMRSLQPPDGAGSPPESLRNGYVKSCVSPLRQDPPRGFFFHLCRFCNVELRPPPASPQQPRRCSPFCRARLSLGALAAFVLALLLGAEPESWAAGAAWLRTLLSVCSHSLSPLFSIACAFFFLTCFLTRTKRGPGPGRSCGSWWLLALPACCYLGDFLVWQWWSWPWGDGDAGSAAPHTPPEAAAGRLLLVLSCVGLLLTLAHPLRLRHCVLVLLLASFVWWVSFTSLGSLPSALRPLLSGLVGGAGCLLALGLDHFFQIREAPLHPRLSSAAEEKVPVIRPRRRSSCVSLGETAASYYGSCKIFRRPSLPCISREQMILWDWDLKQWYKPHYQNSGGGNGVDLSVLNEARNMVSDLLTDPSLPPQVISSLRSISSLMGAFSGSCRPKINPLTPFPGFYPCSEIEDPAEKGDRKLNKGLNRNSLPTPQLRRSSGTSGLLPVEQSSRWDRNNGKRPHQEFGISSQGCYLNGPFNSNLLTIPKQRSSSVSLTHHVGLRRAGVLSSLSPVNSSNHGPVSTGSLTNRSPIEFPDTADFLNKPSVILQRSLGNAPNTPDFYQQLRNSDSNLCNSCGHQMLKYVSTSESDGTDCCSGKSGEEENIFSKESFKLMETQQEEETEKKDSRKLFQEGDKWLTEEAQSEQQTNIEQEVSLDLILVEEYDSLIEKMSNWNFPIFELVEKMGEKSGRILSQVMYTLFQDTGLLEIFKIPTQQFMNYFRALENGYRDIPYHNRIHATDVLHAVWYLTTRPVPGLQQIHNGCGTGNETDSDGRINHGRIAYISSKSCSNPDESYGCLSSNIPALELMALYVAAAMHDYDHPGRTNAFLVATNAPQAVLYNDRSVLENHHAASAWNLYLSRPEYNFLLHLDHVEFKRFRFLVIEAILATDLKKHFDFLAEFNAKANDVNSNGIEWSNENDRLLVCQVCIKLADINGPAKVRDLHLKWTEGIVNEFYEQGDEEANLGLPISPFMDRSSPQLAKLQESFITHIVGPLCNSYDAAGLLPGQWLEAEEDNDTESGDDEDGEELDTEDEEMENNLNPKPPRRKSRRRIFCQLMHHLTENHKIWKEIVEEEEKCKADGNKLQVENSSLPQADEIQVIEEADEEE

human full length PDE3A, sequence (Q14432 whole entry): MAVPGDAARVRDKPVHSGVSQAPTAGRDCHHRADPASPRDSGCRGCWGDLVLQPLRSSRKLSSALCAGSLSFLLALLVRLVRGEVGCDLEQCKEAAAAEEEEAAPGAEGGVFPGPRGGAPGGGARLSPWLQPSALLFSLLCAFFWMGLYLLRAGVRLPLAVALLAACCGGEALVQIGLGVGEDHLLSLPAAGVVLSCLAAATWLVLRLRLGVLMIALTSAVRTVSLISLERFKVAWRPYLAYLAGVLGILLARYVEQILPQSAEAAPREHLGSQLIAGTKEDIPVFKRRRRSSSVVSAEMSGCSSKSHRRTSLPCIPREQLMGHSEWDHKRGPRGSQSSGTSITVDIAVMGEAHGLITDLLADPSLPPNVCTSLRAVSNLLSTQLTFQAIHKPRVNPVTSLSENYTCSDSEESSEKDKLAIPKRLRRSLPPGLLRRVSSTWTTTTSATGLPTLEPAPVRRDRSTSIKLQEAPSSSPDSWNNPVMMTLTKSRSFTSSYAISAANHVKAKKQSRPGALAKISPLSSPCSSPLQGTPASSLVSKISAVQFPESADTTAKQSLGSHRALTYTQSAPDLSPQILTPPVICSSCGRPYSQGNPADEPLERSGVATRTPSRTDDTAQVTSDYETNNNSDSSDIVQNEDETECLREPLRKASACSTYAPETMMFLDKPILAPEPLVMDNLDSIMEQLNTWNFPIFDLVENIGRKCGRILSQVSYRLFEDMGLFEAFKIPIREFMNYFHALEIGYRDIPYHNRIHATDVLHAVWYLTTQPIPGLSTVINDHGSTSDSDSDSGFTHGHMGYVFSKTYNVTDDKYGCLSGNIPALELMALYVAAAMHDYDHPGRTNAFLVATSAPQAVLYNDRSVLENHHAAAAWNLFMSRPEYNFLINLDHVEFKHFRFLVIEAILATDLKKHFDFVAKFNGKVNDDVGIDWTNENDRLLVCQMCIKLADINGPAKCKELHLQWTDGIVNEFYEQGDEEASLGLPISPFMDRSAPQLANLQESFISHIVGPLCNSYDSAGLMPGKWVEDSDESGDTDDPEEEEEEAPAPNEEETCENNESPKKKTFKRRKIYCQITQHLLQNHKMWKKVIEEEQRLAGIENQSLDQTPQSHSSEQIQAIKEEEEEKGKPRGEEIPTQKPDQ

As usually defined, the IC50 is the concentration at which inhibition is half-maximal. Turning to `Cc1ccc(-c2ccc(C3=NNC(=O)O[C@H]3C)cc2C(F)(F)F)cc1` [Example 189, (6S)-6-Methyl-5-[4′-methyl-2-(trifluoromethyl)[1,1′-biphenyl]-4-yl]-3,6-dihydro-2H-1,3,4-oxadiazin-2-one], the IC50 worked out at 6 nM with HeLa cells, 12 nM with SK-MEL-3 cells, 190 nM against human full length PDE3A and 200 nM against human full length PDE3B.

With `O=C1NN=C(c2cc(F)c(-c3cnn(C(F)F)c3)c(C(F)(F)F)c2)CO1` [Example 193, 5-{4-[1-(Difluoromethyl)-1H-pyrazol-4-yl]-3-fluoro-5-(trifluoromethyl)phenyl}-3,6-dihydro-2H-1,3,4-oxadiazin-2-one], the IC50 is 5 nM in the assay on HeLa cells, 9 nM with SK-MEL-3 cells, 195 nM on human full length PDE3A and 215 nM at human full length PDE3B.

Consider `O=C1NN=C(c2ccc(CN3CCOCC3)c(C(F)(F)F)c2)CO1` [Example 197, 5-{4-[(Morpholin-4-yl)methyl]-3-(trifluoromethyl)phenyl}-3,6-dihydro-2H-1,3,4-oxadiazin-2-one], for which the IC50 in the assay on HeLa cells came out at 5 nM; in the assay on SK-MEL-3 cells, 10 nM; against human full length PDE3A it was 650 nM; at human full length PDE3B, 803 nM.

With `Cc1ccc(-c2ccc(C3=NNC(=O)OC3)cc2C(F)F)cn1` [Example 200, 5-[3-(Difluoromethyl)-4-(6-methylpyridin-3-yl)phenyl]-3,6-dihydro-2H-1,3,4-oxadiazin-2-one], the IC50 came to 10 nM with HeLa cells, 22 nM with SK-MEL-3 cells, 34 nM on human full length PDE3A and 66 nM on human full length PDE3B.

Take `O=C1NN=C(c2ccc(C3=CCCC3)c(C(F)F)c2)CO1` [Example 201, 5-[4-(Cyclopent-1-en-1-yl)-3-(difluoromethyl)phenyl]-3,6-dihydro-2H-1,3,4-oxadiazin-2-one]: the IC50 with HeLa cells stood at 3 nM; with SK-MEL-3 cells, 9 nM; at human full length PDE3A, 86 nM; against human full length PDE3B, 77 nM.

For `O=C1NN=C(c2ccc(-c3cn[nH]c3)c(C(F)F)c2)CO1` [Example 202, 5-(3-(difluoromethyl)-4-(1H-pyrazol-4-yl)phenyl)-3H-1,3,4-oxadiazin-2(6H)-one], the IC50 turned out to be 5 nM in the assay on HeLa cells, 12 nM in the assay with SK-MEL-3 cells, 76 nM against human full length PDE3A and 63 nM against human full length PDE3B.

Turning to `O=C1NN=C(c2ccc(NC3CCOCC3)c(C(F)(F)F)c2)CO1` [Example 205, 5-{4-[(Oxan-4-yl)amino]-3-(trifluoromethyl)phenyl}-3,6-dihydro-2H-1,3,4-oxadiazin-2-one], the IC50 in the assay on HeLa cells worked out at 4 nM; with SK-MEL-3 cells it was 5 nM; at human full length PDE3A it was 53 nM; on human full length PDE3B, 123 nM.

As to `O=C1NN=C(c2ccc(NC[C@H](O)C(F)(F)F)c(C(F)(F)F)c2)CO1` [Example 209, 5-[4-{[3,3,3-Trifluoro-(2S)-hydroxypropyl]amino}-3-(trifluoromethyl)phenyl]-3,6-dihydro-2H-1,3,4-oxadiazin-2-one], the IC50 with HeLa cells worked out at 7 nM; in the assay on SK-MEL-3 cells, 7 nM; against human full length PDE3A, 275 nM; on human full length PDE3B, 533 nM.

As to `CC(C)(O)CNc1ccc(C2=NNC(=O)OC2)cc1C(F)(F)F` [Example 210, 5-{4-[(2-Hydroxy-2-methylpropyl)amino]-3-(trifluoromethyl)phenyl}-3,6-dihydro-2H-1,3,4-oxadiazin-2-one], the IC50 was 6 nM in the assay on HeLa cells, 8 nM in the assay with SK-MEL-3 cells, 140 nM against human full length PDE3A and 363 nM at human full length PDE3B.

On to `O=C1NN=C(c2ccc(N[C@H]3CC[C@H](O)CC3)c(C(F)(F)F)c2)CO1` [Example 211, (trans)-5-[4-{[4-Hydroxycyclohexyl]amino}-3-(trifluoromethyl)phenyl]-3,6-dihydro-2H-1,3,4-oxadiazin-2-one], for which the IC50 came out at 2 nM with HeLa cells, 2 nM with SK-MEL-3 cells, 29 nM on human full length PDE3A and 54 nM at human full length PDE3B.

In the case of `O=C1NN=C(c2ccc(NCC3CC3)c(C(F)(F)F)c2)CO1` [Example 212, 5-{4-[(Cyclopropylmethyl)amino]-3-(trifluoromethyl)phenyl}-3,6-dihydro-2H-1,3,4-oxadiazin-2-one], the IC50 in the assay on HeLa cells was found to be 1 nM; in the assay with SK-MEL-3 cells, 2 nM; against human full length PDE3A it was 26 nM; on human full length PDE3B, 24 nM.

Take `CC1(CNc2ccc(C3=NNC(=O)OC3)cc2C(F)(F)F)COC1` [Example 213, 5-[4-{[(3-Methyloxetan-3-yl)methyl]amino}-3-(trifluoromethyl)phenyl]-3,6-dihydro-2H-1,3,4-oxadiazin-2-one]: the IC50 in the assay with HeLa cells was 14 nM; in the assay with SK-MEL-3 cells, 21 nM; on human full length PDE3A, 68 nM; at human full length PDE3B, 71 nM.

In the case of `COCCCNc1ccc(C2=NNC(=O)OC2)cc1C(F)(F)F` [Example 214, 5-{4-[(3-Methoxypropyl)amino]-3-(trifluoromethyl)phenyl}-3,6-dihydro-2H-1,3,4-oxadiazin-2-one], the IC50 amounted to 1 nM in the assay on HeLa cells, 2 nM with SK-MEL-3 cells, 59 nM against human full length PDE3A and 73 nM against human full length PDE3B.

In the case of `C[C@@H](O)CNc1ccc(C2=NNC(=O)OC2)cc1C(F)(F)F` [Example 216, 5-[4-{[(2R)-2-Hydroxypropyl]amino}-3-(trifluoromethyl)phenyl]-3,6-dihydro-2H-1,3,4-oxadiazin-2-one], the IC50 in the assay with HeLa cells worked out at 6 nM; in the assay with SK-MEL-3 cells, 7 nM; against human full length PDE3A, 103 nM; against human full length PDE3B, 167 nM.

With `C[C@@H](O)CCNc1ccc(C2=NNC(=O)OC2)cc1C(F)(F)F` [Example 217, 5-[4-{[(3R)-3-Hydroxybutyl]amino}-3-(trifluoromethyl)phenyl]-3,6-dihydro-2H-1,3,4-oxadiazin-2-one], the IC50 was determined as 14 nM with HeLa cells, 16 nM with SK-MEL-3 cells, 65 nM at human full length PDE3A and 210 nM against human full length PDE3B.

Turning to `C[C@H](O)CNc1ccc(C2=NNC(=O)OC2)cc1C(F)(F)F` [Example 218, 5-[4-{[(2S)-2-Hydroxypropyl]amino}-3-(trifluoromethyl)phenyl]-3,6-dihydro-2H-1,3,4-oxadiazin-2-one], the IC50 in the assay with HeLa cells is 3 nM; in the assay on SK-MEL-3 cells, 4 nM; against human full length PDE3A it was 35 nM; at human full length PDE3B, 89 nM.

`O=C1NN=C(c2ccc(NCC3(O)CCC3)c(C(F)(F)F)c2)CO1` [Example 219, 5-[4-{[(1-Hydroxycyclobutyl)methyl]amino}-3-(trifluoromethyl)phenyl]-3,6-dihydro-2H-1,3,4-oxadiazin-2-one]: the IC50 in the assay with HeLa cells was 8 nM; in the assay on SK-MEL-3 cells, 13 nM; on human full length PDE3A it was 58 nM; against human full length PDE3B, 97 nM.

Regarding `CC(C)CCNc1ccc(C2=NNC(=O)OC2)cc1C(F)(F)F` [Example 220, 5-{4-[(3-Methylbutyl)amino]-3-(trifluoromethyl)phenyl}-3,6-dihydro-2H-1,3,4-oxadiazin-2-one], the IC50 in the assay on HeLa cells came out at 6 nM; in the assay on SK-MEL-3 cells it was 14 nM; against human full length PDE3A, 90 nM; on human full length PDE3B, 131 nM.

Take `CC(C)CNc1ccc(C2=NNC(=O)OC2)cc1C(F)(F)F` [Example 221, 5-{4-[(2-Methylpropyl)amino]-3-(trifluoromethyl)phenyl}-3,6-dihydro-2H-1,3,4-oxadiazin-2-one]: the IC50 with HeLa cells stood at 1 nM; in the assay with SK-MEL-3 cells, 2 nM; on human full length PDE3A, 28 nM; against human full length PDE3B, 56 nM.

For `COCCNc1ccc(C2=NNC(=O)OC2)cc1C(F)(F)F` [Example 222, 5-{4-[(2-Methoxyethyl)amino]-3-(trifluoromethyl)phenyl}-3,6-dihydro-2H-1,3,4-oxadiazin-2-one], the IC50 in the assay with HeLa cells was 1 nM; in the assay on SK-MEL-3 cells, 1 nM; against human full length PDE3A, 76 nM; against human full length PDE3B, 120 nM.

For the molecule `CCN(C)c1ccc(C2=NNC(=O)OC2)cc1C(F)(F)F` [Example 223, 5-{4-[Ethyl(methyl)amino]-3-(trifluoromethyl)phenyl}-3,6-dihydro-2H-1,3,4-oxadiazin-2-one], the IC50 turned out to be 6 nM in the assay with HeLa cells, 9 nM in the assay with SK-MEL-3 cells, 140 nM against human full length PDE3A and 100 nM at human full length PDE3B.

Take `O=C1NN=C(c2ccc(NC[C@H]3CCCO3)c(C(F)(F)F)c2)CO1` [Example 225, 5-[4-({[(2R)-Oxolan-2-yl]methyl}amino)-3-(trifluoromethyl)phenyl]-3,6-dihydro-2H-1,3,4-oxadiazin-2-one]: the IC50 came out at 3 nM with HeLa cells, 5 nM in the assay with SK-MEL-3 cells, 45 nM against human full length PDE3A and 220 nM at human full length PDE3B.

Regarding `O=C1NN=C(c2ccc(N3CC[C@@H](O)C3)c(C(F)(F)F)c2)CO1` [Example 257, 5-{4-[(3R)-3-Hydroxypyrrolidin-1-yl]-3-(trifluoromethyl)phenyl}-3,6-dihydro-2H-1,3,4-oxadiazin-2-one], the IC50 in the assay with HeLa cells was determined as 6 nM; in the assay with SK-MEL-3 cells, 9 nM; at human full length PDE3A it was 75 nM; against human full length PDE3B, 120 nM.

As to `COC(C)(C)CNc1ccc(C2=NNC(=O)OC2)cc1C(F)(F)F` [Example 258, 5-{4-[(2-Methoxy-2-methylpropyl)amino]-3-(trifluoromethyl)phenyl}-3,6-dihydro-2H-1,3,4-oxadiazin-2-one], the IC50 in the assay on HeLa cells turned out to be 3 nM; with SK-MEL-3 cells, 6 nM; against human full length PDE3A it was 41 nM; at human full length PDE3B it was 130 nM.
